Values of other authors in patent US8242172B2, “2,2-dimethylbutyric acid oral pharmaceutical compositions” (Trustees of Boston University, priority 1998, dated 2012).

What was measured:
ΔF508-CFTR [1] = settings: IB3-1 cells, 0.1-1 mM; primary nasal epithelia, 5 mM
CF patients = settings: human, in vivo
ΔF508-CFTR [2] = target: T1, ΔF508-CFTR (Homo sapiens, UniProt P13569, DEL508-508); parameters: primary cultures of nasal polyp epithelia from CF patients (ΔF508 homozygous or heterozygous); endogenous in cells; host or cells: primary nasal polyp epithelia from CF patients; IB3-1 CF bronchial epithelial cell line; settings: 0.1 and 2 mM, up to 7 days in culture; primary nasal polyp epithelia from CF patients or IB3-1
T1 sequence (P13569 with tags, fused parts or gaps DEL508-508): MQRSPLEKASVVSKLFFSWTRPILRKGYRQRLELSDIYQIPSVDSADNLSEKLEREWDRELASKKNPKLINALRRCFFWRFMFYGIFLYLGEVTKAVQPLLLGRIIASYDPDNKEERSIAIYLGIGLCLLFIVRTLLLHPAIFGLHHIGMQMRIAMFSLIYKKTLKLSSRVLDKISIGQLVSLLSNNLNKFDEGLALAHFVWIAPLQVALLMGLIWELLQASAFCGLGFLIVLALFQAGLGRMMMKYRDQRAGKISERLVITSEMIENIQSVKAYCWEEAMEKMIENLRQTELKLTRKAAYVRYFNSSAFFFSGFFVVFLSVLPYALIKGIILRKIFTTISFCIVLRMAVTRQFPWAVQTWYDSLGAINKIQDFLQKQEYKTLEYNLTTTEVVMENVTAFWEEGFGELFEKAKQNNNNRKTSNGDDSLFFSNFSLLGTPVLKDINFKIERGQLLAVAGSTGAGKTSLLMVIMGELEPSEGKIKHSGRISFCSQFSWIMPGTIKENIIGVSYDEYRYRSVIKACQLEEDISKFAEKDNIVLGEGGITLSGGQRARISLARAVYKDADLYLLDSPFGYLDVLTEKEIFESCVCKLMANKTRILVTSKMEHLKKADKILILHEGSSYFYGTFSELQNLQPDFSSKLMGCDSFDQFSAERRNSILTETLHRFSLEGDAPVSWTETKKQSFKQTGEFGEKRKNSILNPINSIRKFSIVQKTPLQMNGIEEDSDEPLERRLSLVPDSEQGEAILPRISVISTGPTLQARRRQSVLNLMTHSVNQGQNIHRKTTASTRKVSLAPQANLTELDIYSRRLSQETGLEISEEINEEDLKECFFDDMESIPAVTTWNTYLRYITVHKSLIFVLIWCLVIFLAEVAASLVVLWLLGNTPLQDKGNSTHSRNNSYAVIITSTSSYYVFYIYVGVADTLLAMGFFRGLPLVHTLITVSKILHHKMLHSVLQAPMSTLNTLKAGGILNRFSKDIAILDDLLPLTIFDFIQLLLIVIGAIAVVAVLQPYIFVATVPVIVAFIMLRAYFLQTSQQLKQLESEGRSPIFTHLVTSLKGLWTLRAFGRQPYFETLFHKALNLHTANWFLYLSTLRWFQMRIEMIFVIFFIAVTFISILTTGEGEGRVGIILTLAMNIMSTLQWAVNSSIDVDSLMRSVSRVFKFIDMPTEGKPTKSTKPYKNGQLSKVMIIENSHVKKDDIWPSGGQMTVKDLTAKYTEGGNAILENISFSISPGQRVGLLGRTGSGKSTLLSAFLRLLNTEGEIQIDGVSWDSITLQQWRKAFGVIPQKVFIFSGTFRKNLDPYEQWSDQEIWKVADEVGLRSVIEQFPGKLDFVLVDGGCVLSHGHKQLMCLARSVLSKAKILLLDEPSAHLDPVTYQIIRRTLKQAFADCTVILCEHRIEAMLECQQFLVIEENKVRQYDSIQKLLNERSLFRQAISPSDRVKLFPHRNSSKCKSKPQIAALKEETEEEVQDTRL

ΔF508-CFTR [3] = target: T1, ΔF508-CFTR; parameters: primary cultures of nasal polyp epithelia from CF patients (ΔF508 homozygous or heterozygous); endogenous in cells; host or cells: primary nasal polyp epithelia from CF patients; IB3-1 CF bronchial epithelial cell line; settings: IB3-1 cells, 2.5 mM
ΔF508-CFTR [4] = settings: 5 mM, 24 hours, C-127 cells
ΔF508-CFTR [5] = target: T1, ΔF508-CFTR; settings: up to 300 mM
IB3-1 cells = settings: equimolar concentrations (1-2 mM)
ΔF508-CFTR [6] = target: T1, ΔF508-CFTR; settings: 1 M or 10%

## arginine butyrate
Thalassemic patients; continuous administration at about 2000 mg/kg patient weight
  effectiveness at continuous administration: effective
Thalassemic patients; pulses, about 400 to 1500 mg/kg, thalassemic patients
  benefit measured by rise in fetal hemoglobin levels: surprisingly more beneficial

## O=C(O)CCCc1ccccc1 [4PBA, 4-phenylbutyrate]
ΔF508-CFTR [1]
  higher molecular mass forms of CFTR (immunoblot): appearance of higher molecular mass forms of CFTR
CF patients
  clinical tolerability: not well tolerated
ΔF508-CFTR [2]
  forskolin-activated chloride secretion: restoration of forskolin-activated chloride secretion
ΔF508-CFTR [3]
  protein kinase A-activated, linear, 10 pS chloride channels at plasma membrane: chloride channels appeared at the plasma membrane

## CCCC(=O)O [butyrate, butyric acid]
ΔF508-CFTR [4]
  ~180-kD mature glycosylated species of CFTR: not observed
  ΔF508-CFTR mRNA by Northern analysis: massive increase in ΔF508-CFTR mRNA
ΔF508-CFTR [5]
  cAMP-stimulation indicative of chloride ion transport: no increases in cAMP-stimulation was observed
IB3-1 cells
  cell morphology and growth rate: morphologic changes in IB3-1 cells, with rounding of cells and decreased growth rate

## OCC(O)CO [glycerol]
ΔF508-CFTR [6]
  movement of ΔF508-CFTR from the ER to the plasma membrane: appears to facilitate movement of ΔF508-CFTR from the ER to the plasma membrane
